Several values for one entry are separate records, joined by “and”; a condition that tells them apart may be missing. Equal entries are not always repeated. Entries after “also recorded” stand apart in the source; their conditions may differ.
How the values were obtained:
[1] = target: T1, KCa3.1 channel in A549-3R cells (Homo sapiens, UniProt O15554); assay: Staining of living A549-3R cells (Protocol 2); assay type: cell-based
T1 construct: the non-small cell lung cancer cell line A549-3R with a high expression of the KCa3.1 channel was employed; endogenous in cells; host or cells: A549-3R cells
Protocol: The cells were used without fixation. After incubation of the cells for 24 h (Section 2.10.1), the medium was removed, and the cells were washed three times with 1 mL of PBS. […]
An Axiovert 200 inverted microscope (Carl Zeiss AG, Jena, Germany) with a ×100 oil immersion objective and a digital camera (SPOT RT SE from Diagnostic Instruments Inc., Livingston, UK) were used. The camera was controlled by MetaVue software (version 6.3r6, Visitron, Germany). Two different filter sets were employed, the FITC filter set (Carl Zeiss Filter Set 10 bandwidth excitation filter 450–490, color splitter 510, bandpass filter 515–565) and the TRITC filter set (Carl Zeiss Filter Set 15, bandpass excitation filter 546/12, dichroic mirror 580, emission filter Long Pass 590).
Using the free imaging software ImageJ (1.53f51, NIH, USA), squares with an edge length of 50 × 50 pixels, corresponding to an area of 9 µm^2, were randomly placed in a cell and signals with Full Width at Half Maximum (FWHM) of ≤5 pixels (~300 nm) were counted as a KCa3.1 channel. For the evaluation, 7 squares were analyzed.
In the next experiment, living A549-3R cells were stained with 10b.

[2] = logD7.4 by micro shake flask method (n-octanol / MOPS buffer pH 7.4, LC-MS); assay type: physicochemical; details: read-out: logD7.4 ± SD (Micro Shake Flask)
Protocol: The logD7.4 values were recorded using the micro shake flask method. In this method, the test compound is distributed between n-octanol and MOPS buffer pH 7.4, and the amount of the compound in the buffer layer is determined by mass spectrometry.
The new fluorescent dyes were designed to increase the polarity and reduce the non-specific labeling of lipophilic membranes of cells. Moreover, a higher polarity should lead to increased water solubility and thus improved handling of the dyes. The logD7.4 value was recorded as a measure of the polarity/lipophilicity using our recently published micro-shake flask method. According to this method, the amount of compound in the aqueous 3-morpholinopropanesulfonic acid (MOPS) buffer pH 7.4 was determined by LC-MS [31, 32].

[3] = target: T1, KCa3.1 channel in A549-3R cells; assay: Staining of permeabilized A549-3R cells (Protocol 5); assay type: cell-based
Protocol: After fixation of the cells (Section 2.10.2), 1 mL of permeabilization solution was added to the glass bottom dish. The cells were incubated for 30 min at 4 °C and afterwards washed three times with PBS. Subsequently, Protocol 1 was performed.
The specificity of the bodipy-labeled senicapoc derivative 10b was further analyzed via conducting co-staining experiments with antibodies. For staining with antibodies, A549-3R cells had to be permeabilized with saponin, since the antibody binds at the intracellular part of the ion channel only after entering the cell. […] For antibody-based immunofluorescence staining of the KCa3.1 channels of permeabilized A549-3R cells, various concentrations of the primary and secondary antibody were tested. Optimal images were obtained with a dilution of 1:300 for the primary antibody and 1:500 for the secondary antibody (see Figure S13, Supplementary Materials). The images obtained by immunofluorescence staining were analyzed as described above for the images with fluorescent probe 10b. This analysis led to a FWHM of 4.80 ± 0.83 pixels and a density of 1.75 ± 0.19 KCa3.1 channels/µm^2. […]

HEK293 cells = assay: Negative control staining of HEK293 cells, which do not express KCa3.1 channels; assay type: cell-based; details: HEK293 cells do not express KCa3.1 channels
Protocol: After fixation of the cells (Section 2.10.2), 300 µL of the 10 µM staining solution was added to the glass bottom dish. The cells were incubated for 10 min at 4 °C in a dark chamber. After incubation, the cells were washed five times with 1 mL of PBS and used subsequently for fluorescence microscopy.
In a second control experiment, azide precursor 7b without the senicapoc warhead was incubated with fixed A549-3R tumor cells.

[4] = logP by HPLC retention time correlation; assay type: physicochemical; details: standardized reversed phase HPLC system
Protocol: The logP values were recorded using HPLC analysis. Thus, the retention time of the test compound in a standardized reversed phase HPLC system is correlated with the retention times of compounds with known logP values.
In addition to the logD7.4 values, the logP values of the fluorescent probes were recorded by HPLC, i.e., after calibration of the method, the retention times were correlated with the logP values or the compounds [33]. […] Fluorescein-labeled ligands 21a and 21b are considerably more polar than the corresponding bodipy-labeled senicapoc derivatives.

[5] = target: T1, KCa3.1 channel in A549-3R cells; assay: Co-staining of permeabilized A549-3R cells with fluorescent probe and antibodies (Protocols 7a and 7b); assay type: cell-based; details: for Average Green (in % ± SD): green = channels stained with 10b; for Average Red (in % ± SD): red = channels stained with antibodies
Protocol: The cells were stained with antibodies as described in Protocol 6. Afterwards, the cells were stained with 300 µL of staining solution and the mixture was incubated for 10 min at 4 °C in a dark chamber. Subsequently, the cells were washed five times with 1 mL of PBS and were used for fluorescence microscopy.
The cells were treated as described in Protocol 5 to permeabilize the cells. Subsequently, staining solution was added and the cells were incubated for 10 min as described in Protocol 1. After washing the cells three times with PBS, Protocol 6 for the antibody staining was performed. Subsequently, the cells were used for fluorescence microscopy.
For the co-staining experiments, the permeabilized A549-3R cells were first incubated with the antibodies and subsequently stained with bodipy-labeled senicapoc derivative 10b for 10 min (protocol 7a). The images were analyzed with the FITC filter set to observe the fluorescence generated by 10b and the TRITC filter set to observe the fluorescence emitted by the secondary antibody (Figure 5). In a further experiment, the order of staining modalities was reversed, i.e., the cells were first labeled with fluorescent probe 10b for 10 min and second with the antibodies (Figure 6).
The obtained green, red and yellow dots were analyzed as described in the cell staining experiments above. The density of antibody-stained KCa3.1 channels (red dots) was higher than the density of KCa3.1 channels stained with bodipy-labeled senicapoc derivative 10b independent of the order of staining modality (Table 3). […] A successful co-staining was only counted when the distance between the signal peak maxima was ≤1 pixel.

[6] = living A549-3R cells, Protocol 2

SMILES: CCC1=C(C)C2=C(c3ccc(OCCOCCn4cc(COc5ccc(C(C(N)=O)(c6ccccc6)c6ccc(F)cc6)cc5)nn4)cc3)c3c(C)c(CC)c(C)n3[B-](F)(OC)[N+]2=C1C (stereo not shown) [10b, 2-{4-[(1-{2-[4-(2,6-Diethyl-4-fluoro-4-methoxy-1,3,5,7-tetramethyl-4-bora-3a,4a-diaza-s-indacen-8-yl)phenoxy]ethoxyethyl}-1,2,3-triazol-4-yl)methoxy]phenyl}-2-(4-flluorophenyl)-2-phenylacetamide]
- staining pattern of living A549-3R cells ([1]; Protocol 2, 10 µM, 10 min, 4 °C): distinct punctate staining pattern
- FWHM of fluorescent dots [1, 6]: 4.89 ± 0.50 pixels
- density of labeled KCa3.1 channels [1, 6]: 1.11 ± 0.11 KCa3.1 channels per µm^2
- logD [2]: > 5
- density of labeled KCa3.1 channels ([3]; permeabilized A549-3R cells): 1.15 ion channels/µm^2
- staining pattern of permeabilized A549-3R cells ([3]; saponin permeabilization, Protocol 5): expected punctate staining pattern
- staining pattern of HEK293 cells (negative control) (HEK293 cells): a punctate staining pattern was not observed; also recorded: could not be observed
- chromatographic logP [4]: 5.8
- Average Green (in % ± SD) ([5]; Protocol 7a (antibody first)): 41.5% and 41.5 ± 4.75%
- Average Red (in % ± SD) ([5]; Protocol 7a (antibody first)): 58.5 ± 9.60%
- Average Green (in % ± SD) ([5]; Protocol 7b (10b first)): 41.4 ± 5.56%
- Average Red (in % ± SD) ([5]; Protocol 7b (10b first)): 58.6 ± 8.52%
- co-staining of a single KCa3.1 channel with both imaging tools (yellow dots) ([5]; distance between signal peak maxima ≤1 pixel counted as co-staining): hardly observed

— article PMC11859423, “Fluorescent Probes to Image the KCa3.1 Channel in Tumor Cells” (Pharmaceutics, 2025)
